Read-outs that look alike come from different tables or passages of the source. Marks after values point to notes of the source that are not given here.
Tests used:
[1] = target: T1, ERβ (Homo sapiens, UniProt Q92731); assay: Western blot, dose-response modulation of ERβ protein levels in T47D cells; type: cell-based; parameters: endogenous in cells; settings: 24 h, relative to vehicle (DMSO) = 100%
[2] = target: T1, ERβ; parameters: endogenous in cells; method as in Power and Thompson (2003); settings: T47D; 1 nM E2, 24 h 1 μM 4-OHT; ref Power and Thompson (2003); cited from earlier work
[3] = tested on: ERα; settings: T47D, cited from earlier work; for Effect on ERα protein levels: 24 h, 1 nM E2, 1 μM 4-OHT, ref Power and Thompson (2003)
[4] = target: T1, ERβ; parameters: although both cell lines express ERα and ERβ, MCF7 has a high ERα/ERβ ratio; endogenous in cells; host or cells: MCF7; settings: cited from earlier work
[5] = tested on: ERα; settings: MCF7, cited from earlier work; for ERα protein levels downregulated: 48 h, 1 nM E2, 100 nM fulvestrant, 1 μM 4-OHT, ref Garner et al. (2015); for ERα protein levels downregulated to: after 6 h, 100 nM, ref Yeh et al. (2013)
[6] = target: T1, ERβ; assay: Western blot, dose-response modulation of ERβ protein levels in MCF7 cells; type: cell-based; parameters: although both cell lines express ERα and ERβ, MCF7 has a high ERα/ERβ ratio; endogenous in cells; host or cells: MCF7; settings: 24 h, relative to vehicle (DMSO) = 100%
[7] = target: T2, ERα (Homo sapiens, UniProt P03372); assay: Western blot, dose-response modulation of ERα protein levels in MCF7 cells; type: cell-based; parameters: although both cell lines express ERα and ERβ, MCF7 has a high ERα/ERβ ratio; endogenous in cells; host or cells: MCF7; settings: 24 h; for Efficacy, ERα (AVG % ER remaining ± SD): relative to vehicle (DMSO) = 100%, maximal response of fitted dose-response curve
T2 sequence (P03372 1-595): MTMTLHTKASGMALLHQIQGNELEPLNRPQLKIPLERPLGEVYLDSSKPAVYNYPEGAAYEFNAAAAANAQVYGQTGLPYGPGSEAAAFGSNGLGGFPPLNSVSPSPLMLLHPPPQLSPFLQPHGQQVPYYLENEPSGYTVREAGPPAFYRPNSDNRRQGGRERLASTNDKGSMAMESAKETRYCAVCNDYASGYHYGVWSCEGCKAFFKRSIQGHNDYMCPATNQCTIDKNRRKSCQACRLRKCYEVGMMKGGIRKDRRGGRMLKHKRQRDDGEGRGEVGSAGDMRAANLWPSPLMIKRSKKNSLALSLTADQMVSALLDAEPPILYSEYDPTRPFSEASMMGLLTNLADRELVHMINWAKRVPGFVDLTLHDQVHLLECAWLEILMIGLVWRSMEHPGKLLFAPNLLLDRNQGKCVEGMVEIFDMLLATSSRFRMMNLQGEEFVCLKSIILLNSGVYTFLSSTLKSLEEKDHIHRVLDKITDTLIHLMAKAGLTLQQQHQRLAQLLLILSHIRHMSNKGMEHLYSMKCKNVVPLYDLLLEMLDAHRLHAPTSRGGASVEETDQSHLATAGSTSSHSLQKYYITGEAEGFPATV

[8] = target: T1, ERβ; assay: Effect of translational inhibition (CHX) on modulation of ERβ protein levels in T47D cells; type: cell-based; parameters: endogenous in cells; settings: 1 nM CHX, over the concentrations tested
[9] = target: T1, ERβ; assay: Effect of translational inhibition (CHX) on modulation of ERβ protein levels in MCF7 cells; type: cell-based; parameters: although both cell lines express ERα and ERβ, MCF7 has a high ERα/ERβ ratio; endogenous in cells; host or cells: MCF7
[10] = target: T2, ERα; assay: Western blot, dose-response modulation of ERα protein levels in T47D cells; type: cell-based; parameters: endogenous in cells; settings: 24 h; for Efficacy, ERα (AVG % ER remaining ± SD): relative to vehicle (DMSO) = 100%
[11] = target: T2, ERα; assay: Effect of translational inhibition (CHX) on modulation of ERα protein levels in MCF7 cells; type: cell-based; parameters: although both cell lines express ERα and ERβ, MCF7 has a high ERα/ERβ ratio; endogenous in cells; host or cells: MCF7; settings: 1 nM CHX, over the concentrations tested
[12] = target: T2, ERα; assay: Effect of translational inhibition (CHX) on modulation of ERα protein levels in T47D cells; type: cell-based; parameters: endogenous in cells; settings: 1 nM CHX, over the concentrations tested
[13] = MCF7, 1 nM E2, 1 μM fulvestrant, ref Mishra et al. (2016)
[14] = MCF7, 1 nM E2, 24 h 1 μM 4-OHT, ref Power and Thompson (2003)
[15] = MCF7 cells transfected with an ERβ expression vector, 10 nM, ref Peekhaus et al. (2004)
[16] = MCF7, 1 nM CHX, over the concentrations tested

T1 sequence (Q92731 whole entry): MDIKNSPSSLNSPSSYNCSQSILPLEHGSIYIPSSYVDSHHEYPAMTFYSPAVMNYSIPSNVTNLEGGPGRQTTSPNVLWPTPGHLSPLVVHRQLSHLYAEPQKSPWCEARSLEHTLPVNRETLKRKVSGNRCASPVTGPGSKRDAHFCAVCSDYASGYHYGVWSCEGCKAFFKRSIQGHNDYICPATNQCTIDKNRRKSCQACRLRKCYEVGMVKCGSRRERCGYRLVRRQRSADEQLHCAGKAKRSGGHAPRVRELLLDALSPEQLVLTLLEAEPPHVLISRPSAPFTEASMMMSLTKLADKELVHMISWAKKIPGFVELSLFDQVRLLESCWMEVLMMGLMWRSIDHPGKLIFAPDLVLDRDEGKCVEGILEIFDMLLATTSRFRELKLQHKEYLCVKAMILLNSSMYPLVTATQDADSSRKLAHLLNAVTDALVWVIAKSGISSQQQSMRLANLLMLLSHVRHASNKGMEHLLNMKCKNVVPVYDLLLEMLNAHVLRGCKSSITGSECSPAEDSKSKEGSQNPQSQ

Compound | Efficacy, ERβ (AVG % ER remaining ± SD) [1] | Effect on ERβ protein levels [2] | Effect on ERα protein levels [3] | Effect on ERβ protein levels [4, 13] | Effect on ERβ protein levels [4, 14] | Effect on ERβ protein levels [4, 15] | ERα protein levels downregulated [5] | ERα protein levels downregulated to [5] | Efficacy, ERβ (AVG % ER remaining ± SD) [6] | Efficacy, ERα (AVG % ER remaining ± SD) [7] | Change in ERβ protein levels on addition of CHX [8] | Change in ERβ protein levels on addition of CHX [9, 16] | Efficacy, ERα (AVG % ER remaining ± SD) [10] | Change in ERα protein levels on addition of CHX [11] | Change in ERα protein levels on addition of CHX [12] | also measured
C[C@]12CC[C@@H]3c4ccc(O)cc4CC[C@H]3[C@@H]1CC[C@@H]2O [E2, 17β-estradiol] | 58.7 ± 9.0^a % | significantly upregulated | no effect | downregulated | significantly upregulated | downregulated | 100% | 35% | 53.3 ± 5.6^a % | – | – | – | – | – | – | Effect on ERα protein levels ([5]; 24 h, 1 nM E2, 1 μM 4-OHT, ref Power and Thompson (2003)): downregulated
C[C@]12CC[C@@H]3c4ccc(O)cc4C[C@@H](CCCCCCCCC[S+]([O-])CCCC(F)(F)C(F)(F)F)[C@H]3[C@@H]1CC[C@@H]2O (stereo partly shown) [Ful, fulvestrant] | 134.1 ± 4.8^b*** % | – | – | upregulated | – | upregulated | 100% | 35% | 127.1 ± 9.6^b*** % | 46.8 ± 6.8^a % | 1.2 fold | not significantly altered | 64.1 ± 20.9^a % | – | – | ERα protein levels downgraded ([3]; concentration range 0.03–1 μM, ref Liu et al. (2016)): more than 50%; Efficacy of downregulation of ERα protein levels ([5]; 1 μM, 4 h, ref Joseph et al. (2016)): 6.4%; IC50 ([5]; ref Joseph et al. (2016), read-out: Potency of downregulation of ERα protein levels): 0.39 nM
Cc1c(-c2ccc(O)cc2)nn(-c2ccc(O)cc2)c1-c1ccc(OCCN2CCCCC2)cc1 [MPP, methylpiperidinopyrazole] | 108.0 ± 2.1^b*** % | – | – | – | – | – | – | – | 122.0 ± 2.3^b*** % | 120.9 ± 3.0^b*** % | no significant difference | 1.1 fold | 115.7 ± 3.4^b** % | 1.1 fold | no significant difference | –
O=C1C[C@@H](c2ccc(O)cc2)Oc2cc(O)ccc21 [Liq, liquiritigenin] | – | – | – | – | – | – | – | – | – | 65.9 ± 10.9^a % | – | – | 87.5 ± 2.5^b ^, ^c % | no significant difference | no significant difference | Potency, ERα (AVG IC50 in Log μg/mL ± SD) [7]: −1.9 ± 0.8^b**** Log μg/mL; Potency, ERα (AVG IC50 in Log μg/mL ± SD) [10]: −9.8 ± 1.0^a ^, ^c** Log μg/mL
CC/C(=C(\c1ccc(O)cc1)c1ccc(OCCN(C)C)cc1)c1ccccc1 [4-OHT, (2)-4-hydroxytamoxifen] | 151.8 ± 10.8^b*** % | significant downregulation | upregulate | – | significantly upregulated | – | – | – | 142.9 ± 8.2^b*** % | – | – | – | – | – | – | Change in ERβ protein levels on addition of CHX [9]: not significantly altered

Reference: PMC10040842, “Cyclopia extracts act as selective estrogen receptor subtype downregulators in estrogen receptor positive breast cancer cell lines: Comparison to standard of care breast cancer endocrine therapies and a selective estrogen receptor agonist and antagonist” (Frontiers in Pharmacology, 2023)
